The values below come from patent US10213416B2, “Substituted benzoxazolone derivatives as acid ceramidase inhibitors, and their use as medicaments” (FONDAZIONE ISTITUTO ITALIANO DI TECNOLOGIA, priority 2014, dated 2019).

“Also recorded” adds a separate entry of the source.

Experiment [1] concerns the target human (hAC) acid ceramidase (Homo sapiens (Human), UniProt Q13510). Nature of the experiment: Fluorescent-based in vitro assay of acid ceramidase inhibition. It is filed as biochemical. As to conditions: human acid ceramidase-enriched lysosomal lysate from HEK293 cells, fluorogenic probe 5 μM, pH 4.5. An excerpt: To evaluate the potency of the compounds towards acid ceramidase, a fluorescence-based in vitro assay previously described in literature (Bedia C et al., ChemBioChem, 2007, 8, 642-648) was implemented and optimized. This assay is based on a “fluorogenic probe” containing a coumarin group and a sphingoid base moiety (see figure below), which is not fluorescent in itself, but upon enzymatic cleavage by acid ceramidase followed by a chemical transformation liberates the fluorescent molecule umbelliferone (7-hydroxychromen-2-one). By quantifying the generation of umbelliferone using a fluorescence plate-reader, the level of enzymatic activity can be measured, whereby IC50 values of compounds that inhibit this activity can be generated.
Lysosomal lysate, enriched with acid ceramidase, was prepared from a cell line stably expressing human acid ceramidase. In the assay, the fluorogenic probe (or substrate) serves as a ceramide-analogue, which is recognized and hydrolyzed at the amide bond by acid ceramidase from the enriched lysate to yield the fatty acid and coumarinic aminodiol.
A lysosomal human acid ceramidase protein preparation was obtained from HEK293 cells stably expressing acid ceramidase suspended in 20 mM Tris HCl (pH 7.5) with 0.32 M sucrose. The cell solution was sonicated and centrifuged at 800×g for 15 min at 4° C. Supernatants were then centrifuged at 12,000×g for 30 min at 4° C. Pellets were re-suspended in phosphate-buffered saline (PBS) pH 7.4 and subjected to two freeze-thaw cycles at −80° C. The suspension was finally centrifuged at 105,000×g for 1 h at 4° C. and protein concentration was measured in the supernatant with bicinchinonic-acid based protein assay.
The assay was performed in Optiplate 96-wells black plates, with each reaction well containing a mixture of 25 mM sodium acetate buffer pH 4.5 and a fixed amount of protein (2 μg) in a volume of 85 μL. After 30 min of pre-incubation with test compounds (diluted 20× from DMSO stock solutions at different concentrations), the fluorogenic probe was added (diluted 20× from EtOH stock solution, final concentration 5 μM). After incubation for 3 h at 37° C., the reactions were stopped with 50 μl of methanol and 100 μl of a 2.5 mg/mL NaIO4 fresh solution in 100 mM Glycine/NaOH pH 10.6. The plate was incubated at 37° C. for 2 h in the dark and fluorescence intensities were measured at excitation/emission wavelengths of 360/446 nm. Negative control samples consisted of the same incubation mixture in the absence of protein extracts. The IC50 values or percent of inhibition, at the indicated concentration, of selected compounds described in the invention are reported in Table 2.

Experiment [2] concerns levels of MAGs in brain, liver, fat and heart. Nature of the experiment: Levels of monoacylglycerols (MAG) in mouse tissues after systemic administration. It is filed as in vivo. As to conditions: mice, 10 mg-kg-1 intraperitoneal, 3 hours after injection. The procedure: (§1) Specifically, the compound of Example 1 was tested for its ability to inhibit the hydrolytic degradation of diacylglycerols (DAG) and monoacylglycerols (MAG) in live mice. DAG and MAG hydrolysis is catalyzed by multiple serine lipases, including diacylglycerol lipase (DGL), monoacylglycerol lipase (MGL), hormone-sensitive lipase (HSL), and endothelial lipase. Thus, by monitoring the effects of compound of Example 1 on MAG-hydrolysing activity as well as DAG and MAG levels ex vivo, we gain important information as to the ability of the compound to interfere with those lipases in a physiologically relevant setting.
Specifically, FIG. 1 evidences the effect of Example 1 or vehicle (DMSO) on MGL activity in brain, liver, fat and heart. MAG-hydrolysing activity was measured 3 h after intraperitoneal injection of compound of Example 1 (10 mg-kg-1). Results are expressed as mean±s.e.m. (n=5). […] The levels of MAGs were quantified after 3 hours after intraperitoneal injection of compound of Example 1 (10 mg-kg-1). Specifically, levels of 16:0 MAG, 18:0 MAG, 18:1 MAG, 22:4 MAG, 22:6 MAG were measured in the brain (a); levels of 16:0 MAG, 18:0 MAG, 18:1 MAG, 22:4 MAG were measured in the liver (b), in fat (c) and in the heart (d). Results are expressed as mean±s.e.m. (n=5). […]

Experiment [3] concerns MAG-hydrolysing enzymes (monoacylglycerol lipase (MGL), hormone-sensitive lipase (HSL), endothelial lipase). Nature of the experiment: MAG-hydrolysing activity ex vivo in mouse tissues after systemic administration (LC-MS based assay). As to conditions: mice, 10 mg-kg-1 intraperitoneal, measured 3 h after injection; brain, liver, fat and heart. As for the experimental part: as §1
Specifically, FIG. 1 evidences the effect of Example 1 or vehicle (DMSO) on MGL activity in brain, liver, fat and heart. MAG-hydrolysing activity was measured 3 h after intraperitoneal injection of compound of Example 1 (10 mg-kg-1). Results are expressed as mean±s.e.m. (n=5). […] The levels of MAGs were quantified after 3 hours after intraperitoneal injection of compound of Example 1 (10 mg-kg-1). Specifically, levels of 16:0 MAG, 18:0 MAG, 18:1 MAG, 22:4 MAG, 22:6 MAG were measured in the brain (a); levels of 16:0 MAG, 18:0 MAG, 18:1 MAG, 22:4 MAG were measured in the liver (b), in fat (c) and in the heart (d). Results are expressed as mean±s.e.m. (n=5).
Tissue was homogenized in ice-cold Tris-HCl (50 mM, pH7.5, 10 vol) containing sucrose (0.32 M). […]

Chain of human (hAC) acid ceramidase (Q13510 143-395): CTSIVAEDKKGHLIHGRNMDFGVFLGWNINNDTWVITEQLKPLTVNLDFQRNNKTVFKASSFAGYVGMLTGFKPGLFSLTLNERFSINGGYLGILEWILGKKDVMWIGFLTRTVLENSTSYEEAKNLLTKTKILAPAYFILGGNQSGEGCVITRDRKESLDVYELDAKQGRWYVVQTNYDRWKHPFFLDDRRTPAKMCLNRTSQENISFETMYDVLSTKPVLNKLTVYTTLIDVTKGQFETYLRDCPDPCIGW
Chain of human (hAC) acid ceramidase (Q13510 22-142): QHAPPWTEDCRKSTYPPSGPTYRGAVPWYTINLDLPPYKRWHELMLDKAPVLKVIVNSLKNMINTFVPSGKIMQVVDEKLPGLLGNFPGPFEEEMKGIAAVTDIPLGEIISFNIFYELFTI

The IC50 is the concentration that gives 50% inhibition. `CCCCOCCCNC(=O)n1c(=O)oc2cc(-c3ccc(F)cc3)ccc21` [Example 13, N-(3-butoxypropyl)-6-(4-fluorophenyl)-2-oxo-1,3-benzoxazole-3-carboxamide] came in with an IC50 in experiment [1] of 132 ± 5 nM.

Take `COc1ccc(C(=O)c2ccc3oc(=O)n(C(=O)NCCCCCCc4ccccc4)c3c2)cc1` [Example 8, 5-(4-methoxybenzoyl)-2-oxo-N-(6-phenylhexyl)-1,3-benzoxazole-3-carboxamide]: in experiment [1], half-maximal inhibition (IC50) required 46 ± 31 nM. Compared with the last compound, the IC50 is about 2.9-fold lower.

With `COc1ccc(C(=O)c2ccc3c(c2)oc(=O)n3C(=O)NCCCCCc2ccccc2)cc1` [Example 6, 6-(4-methoxybenzoyl)-2-oxo-N-(5-phenylpentyl)-1,3-benzoxazole-3-carboxamide], the midpoint of inhibition in experiment [1], the IC50, lay at 26 ± 3 nM.

In experiment [1], `O=C(NCCCCCCc1ccccc1)n1c(=O)oc2ccc(-c3ccc(C(F)(F)F)cc3)cc21` [Example 3, 2-oxo-N-(6-phenylhexyl)-5-[4-(trifluoromethyl)phenyl]-1,3-benzoxazole-3-carboxamide] returned an IC50 of 111 ± 30 nM.

Consider `O=C(NCCCCCCc1ccccc1)n1c(=O)oc2c(-c3ccc(F)cc3)cccc21` [Example 4, 7-(4-fluorophenyl)-2-oxo-N-(6-phenylhexyl)-1,3-benzoxazole-3-carboxamide], for which it took 125 ± 79 nM to reach half-maximal inhibition in experiment [1] (IC50).

`O=C(NCCCCSc1ccccc1)n1c(=O)oc2ccc(-c3ccc(F)cc3)cc21` [Example 15, 5-(4-fluorophenyl)-2-oxo-N-(4-phenylsulfanylbutyl)-1,3-benzoxazole-3-carboxamide] had an IC50 in experiment [1] of 240 ± 58 nM.

Take `O=C(NCCCCCc1ccccc1)n1c(=O)oc2c(-c3ccc(F)cc3)cc(Cl)cc21` [Example 14, 5-chloro-7-(4-fluorophenyl)-2-oxo-N-(5-phenylpentyl)-1,3-benzoxazole-3-carboxamide]: the IC50 in experiment [1] was 37 nM.

The compound `O=C(c1ccc(F)cc1)c1cccc2c1oc(=O)n2C(=O)NCCCCCc1ccccc1` [Example 9, 7-(4-fluorobenzoyl)-2-oxo-N-(5-phenylpentyl)-1,3-benzoxazole-3-carboxamide] yielded an IC50 in experiment [1] of 66 ± 15 nM.

As to `O=C(NCCCCCc1ccccc1)n1c(=O)oc2cc(-c3ccc(F)cc3)ccc21` [Example 1, 6-(4-fluorophenyl)-2-oxo-N-(5-phenylpentyl)-1,3-benzoxazole-3-carboxamide], in experiment [2], the “levels of the most representative MAGs (16:0, 18:0, 18:1, 22:4, 22:6 MAG)” value was “lack of effect; also recorded: remained unchanged”. The “MAG-hydrolysing activity (MGL activity)” value in experiment [3] is listed as “lack of effect; also recorded: did not cause inhibition; also recorded: no inhibitory activity”. Inhibition in experiment [1] was half-maximal at 75 ± 20 nM (IC50).
